Measured values reported in patent US20250326741A1, “GLUCOSE-DEPENDENT INSULINOTROPIC POLYPEPTIDE RECEPTOR ANTAGONISTS AND USES THEREOF” (Pfizer Inc., priority 2024, published 2025).

Biological target: T1, human Glucose-dependent Insulinotropic Polypeptide Receptor (hGIPR) (Homo sapiens, UniProt P48546)
T1 sequence (P48546 22-466): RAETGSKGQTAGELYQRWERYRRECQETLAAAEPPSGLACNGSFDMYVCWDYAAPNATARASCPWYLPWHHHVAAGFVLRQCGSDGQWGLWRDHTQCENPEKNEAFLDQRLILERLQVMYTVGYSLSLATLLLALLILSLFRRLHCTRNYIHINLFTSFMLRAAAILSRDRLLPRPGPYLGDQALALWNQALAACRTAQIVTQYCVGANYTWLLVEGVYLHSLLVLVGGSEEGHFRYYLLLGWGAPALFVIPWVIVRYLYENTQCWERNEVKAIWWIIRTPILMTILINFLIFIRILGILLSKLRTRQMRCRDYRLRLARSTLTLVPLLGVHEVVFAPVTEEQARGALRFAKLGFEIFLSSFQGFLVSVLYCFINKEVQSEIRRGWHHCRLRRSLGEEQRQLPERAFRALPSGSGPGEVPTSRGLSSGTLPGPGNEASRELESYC
Test: Functional in vitro GIPR antagonist potency assay (intracellular cAMP, HTRF, hGIP stimulation at EC80)
Type: cell-based
Details: not given
Method: Example AA. Functional In Vitro GIPR Antagonist Potency Assay
The functional in vitro antagonist potency for test compounds was determined by monitoring intracellular cyclic adenosine monophosphate (cAMP) levels in Chinese hamster ovary (CHO)—K1 cells stably expressing the human Glucose-dependent Insulinotropic Polypeptide Receptor (hGIPR). Following agonist activation, hGIPR associates with the G-protein complex causing the Gas subunit to exchange bound guanosine diphosphate (GDP) for guanosine triphosphate (GTP), followed by dissociation of the Gas-GTP complex. The activated Gas subunit can couple to downstream effectors to regulate the levels of second messengers or cAMP within the cell. Thereby, determination of intracellular cAMP levels allows for pharmacological characterization. Intracellular cAMP levels are quantitated using a homogenous assay utilizing the Homogeneous Time Resolved Fluorescence (HTRF) technology from Perkin Elmer. The method is a competitive immunoassay between native cAMP produced by the cells and cAMP labelled with the acceptor dye, d2. The two entities compete for binding to a monoclonal anti-cAMP antibody labeled with cryptate. The specific signal is inversely proportional to the concentration of cAMP in the cells.
Test compounds were solubilized to a concentration of 30 mM in 100% dimethyl sulfoxide (DMSO). An 11-point dilution series using 1 in 3.162-fold serial dilutions was created in 100% DMSO with a top concentration of 8 mM. The serially diluted compound was spotted with an Echo Acoustic liquid handler (Beckman Coulter) into a 384-well assay plate (Corning, Cat No. 3824) at 50 nL/well with duplicate points at each concentration, at a 200× final assay concentration (FAC). The final compound concentration range in the assay was 40 μM to […], with a final DMSO concentration of 0.5%.
Frozen assay-ready vials (at 1×10^7 cells/vial) of CHO-K1 cells stably expressing the Gs-coupled human GIPR receptor (Eurofins, DiscoverX, Cat No. 95-0146C2) were thawed, counted, and resuspended in assay buffer consisting of Hank's Balanced Salt Solution (HBSS, Lonza Cat No. 10-527) containing 20 mM (4-(2-hydroxyethyl)-1-piperazineethanesulfonic acid (HEPES, Lonza, Cat No. 17-737E), 0.1% bovine serum albumin (BSA, Sigma, Cat No. A7979), and 200 μM 3-isobutyl-1-methylxanthine (IBMX, Sigma, Cat No. 15879) at a density of 4×10^5 cells/mL. Cells were added to assay plate (5 μL/well of 4×10^5 cells/mL stock for 2,000 cells/well final) containing 50 nL of 200×FAC test compound, and incubated at 37° C. (95% O2: 5% CO2) for 2 hours, with micro-clime lids (Labcyte, Cat No. LLS-0310). Following the 2-hour cell and compound incubation, a stimulation mix comprised of hGIPR agonist human glucose-dependent insulinotropic polypeptide (hGIP, full length, Sigma Cat No. G2269) in assay buffer/0.1% DMSO was added to the assay plate (5 μL/well) at an estimated EC80 FAC (based on previous hGIP agonist curves) and incubated for another 30 minutes with micro-clime lids at 37° C. (95% O2: 5% CO2), after which intracellular cAMP levels were quantified as per Perkin Elmer's protocol (5 μL of d2 and then 5 μL cryptate, incubated for 1 hour at room temperature). Emission spectra of samples were measured on a Pherastar plate reader (BMG Labtech Inc) using a HTRF protocol (excitation, 320 nm; emission, 665 nm/620 nm).
(95% O2: 5% CO2), with a micro-clime lid. Following the 2-hour cell and DMSO incubation, a hGIP concentration response curve at 2×FAC (12-point curve using 1 in 3 serial dilutions, with triplicate points at each concentration, 100 nM final top concentration) in assay buffer/1% DMSO was added (5 μL/well) and incubated for a further 30 minutes with a micro-clime lid at 37° C. (95% O2: 5% CO2), after which intracellular cAMP levels were quantified and samples measured as described previously. Experiments passed quality control if the agonist concentration used for stimulation fell between the on-the-day EC50-EC90. […]

Row | Structure (SMILES) | IC50
1 | Cc1cc(-n2ccc(NC(=O)[C@H]3CCCN3C(=O)Nc3ccc(C(F)(F)F)c(F)c3)n2)ccc1C(=O)O [Example 9, 4-{3-[(1-{[3-Fluoro-4-(trifluoromethyl)phenyl]carbamoyl}-D-prolyl)amino]-1H-pyrazol-1-yl}-2-methylbenzoic Acid] | 19 nM

Same assay, conditions: geometric mean; CHO-K1 cells stably expressing human GIPR, cAMP after hGIP stimulation at EC80

Row | Structure (SMILES) | IC50
2 | Cc1cc(-n2ccc(NC(=O)[C@H]3CCCN3C(=O)Nc3ccc(Cl)c(Cl)c3)n2)ccc1C(=O)O [Example 37, 4-[3-({1-[(3,4-dichlorophenyl)carbamoyl]-D-prolyl}amino)-1H-pyrazol-1-yl]-2-methylbenzoic acid] | 94 nM
3 | CC(C)c1ccc(NC(=O)N2CCC[C@@H]2C(=O)Nc2ccn(-c3cc(F)c(O)c(F)c3)n2)cc1 [Example 43] | 5.3 nM
4 | CC(C)c1ccc(NC(=O)N2CCC[C@@H]2C(=O)Nc2ccn(-c3ccc(C(=O)O)cc3F)n2)cc1 [Example 24, 3-fluoro-4-{3-[(1-{[4-(propan-2-yl)phenyl]carbamoyl}-D-prolyl)amino]-1H-pyrazol-1-yl}benzoic acid] | 15 nM
5 | CC(C)c1ccc(NC(=O)N2CCC[C@@H]2C(=O)Nc2ccn(-c3ccc(C(=O)O)cc3)n2)cc1 [Example 22, 4-{3-[(1-{[4-(propan-2-yl)phenyl]carbamoyl}-D-prolyl)amino]-1H-pyrazol-1-yl}benzoic acid] | 22 nM
6 | Cc1cc(-n2ccc(NC(=O)[C@H]3CCCN3C(=O)NCc3ccc(C(F)(F)F)cc3)n2)ccc1C(=O)O [Example 40, 2-methyl-4-(3-{[1-{{[4-(trifluoromethyl)phenyl]methyl}carbamoyl)-D-prolyl]amino}-1H-pyrazol-1-yl)benzoic acid] | 150 nM
7 | Cc1cc(-n2ccc(NC(=O)[C@H]3CCCN3C(=O)Nc3ccc(OC(F)(F)F)cc3)n2)ccc1C(N)=O [Example 41] | 98 nM
8 | Cc1cc(-n2ccc(NC(=O)[C@H]3CCCN3C(=O)NCc3ccc(C(F)(F)F)c(F)c3)n2)ccc1C(=O)O [Example 48, 4-(3-{[1-{{[3-fluoro-4-(trifluoromethyl)phenyl]methyl}carbamoyl)-D-prolyl]amino}-1H-pyrazol-1-yl)-2-methylbenzoic acid] | 150 nM
9 | Cc1cc(-n2ccc(NC(=O)[C@H]3CCCN3C(=O)COc3ccc(C(F)(F)F)c(F)c3)n2)ccc1C(=O)O [Example 67, 4-{3-[(1-{[3-fluoro-4-(trifluoromethyl)phenoxy]acetyl}-D-prolyl)amino]-1H-pyrazol-1-yl}-2-methylbenzoic acid] | 61 nM
10 | Cc1cc(-n2ccc(NC(=O)[C@H]3CCCN3C(=O)Nc3ccc(C(F)(F)F)c(C)c3)n2)ccc1C(=O)O [Example 38, 2-methyl-4-{3-[(1-{[3-methyl-4-(trifluoromethyl)phenyl]carbamoyl}-D-prolyl)amino]-1H-pyrazol-1-yl}benzoic acid] | 28 nM
11 | Cc1cc(-n2ccc(NC(=O)[C@H]3CCCN3C(=O)Nc3ccc(C(C)C)c(F)c3)n2)ccc1C(N)=O [Example 16, (2R)—N^2-[1-(4-Carbamoyl-3-methylphenyl)-1H-pyrazol-3-yl]-N^1-[3-fluoro-4-(propan-2-yl)phenyl]pyrrolidine-1,2-dicarboxamide] | 110 nM
12 | CC(C)c1ccc(NC(=O)N2CCC[C@@H]2C(=O)Nc2ccn(-c3ccc(C(N)=O)cc3F)n2)cc1 [Example 36] | 42 nM
13 | Cc1cc(-n2ccc(NC(=O)[C@H]3CCCN3C(=O)COc3ccc(OC(F)(F)F)cc3)n2)ccc1C(=O)O [Example 63, 2-methyl-4-{3-[(1-{[4-(trifluoromethoxy)phenoxy]acetyl}-D-prolyl)amino]-1H-pyrazol-1-yl}benzoic acid] | 46 nM
14 | Cc1cc(-n2ccc(NC(=O)[C@H]3CCCN3C(=O)NCc3ccc(OC(F)(F)F)cc3)n2)ccc1C(=O)O [Example 8, 2-Methyl-4-(3-{[1-({[4-(trifluoromethoxy)phenyl]methyl}carbamoyl)-D-prolyl]amino}-1H-pyrazol-1-yl)benzoic Acid] | 61 nM
15 | Cc1cc(C(=O)O)ccc1-n1ccc(NC(=O)[C@H]2CCCN2C(=O)Nc2ccc(C(C)C)cc2)n1 [Example 25, 3-methyl-4-{3-[(1-{[4-(propan-2-yl)phenyl]carbamoyl}-D-prolyl)amino]-1H-pyrazol-1-yl}benzoic acid] | 98 nM

Further lines, results first:

Row | IC50 | Structure (SMILES)
16 | 280 nM | CC(C)c1ccc(NC(=O)N2CCC[C@@H]2C(=O)Nc2ccn(-c3ccc(C(=O)O)c(F)c3)n2)cc1 [Example 32, 2-fluoro-4-{3-[(1-{[4-(propan-2-yl)phenyl]carbamoyl}-D-prolyl)amino]-1H-pyrazol-1-yl}benzoic acid]
17 | 75 nM | Cc1cc(-n2ccc(NC(=O)[C@H]3CCCN3C(=O)Nc3ccc(Cl)c(C(F)(F)F)c3)n2)ccc1C(=O)O [Example 46, 4-{3-[(1-{[4-chloro-3-(trifluoromethyl)phenyl]carbamoyl}-D-prolyl)amino]-1H-pyrazol-1-yl}-2-methylbenzoic acid]
18 | 41 nM | Cc1cc(-n2ccc(NC(=O)[C@H]3CCCN3C(=O)Nc3ccc(C(C)C)c(C)c3)n2)ccc1C(N)=O [Example 15, (2R)—N^2-[1-(4-Carbamoyl-3-methylphenyl)-1H-pyrazol-3-yl]-N^1-[3-methyl-4-(propan-2-yl)phenyl]pyrrolidine-1,2-dicarboxamide]
19 | 35 nM | Cc1cc(-n2ccc(NC(=O)[C@H]3CCCN3C(=O)Nc3cc(F)c(C(F)(F)F)c(F)c3)n2)ccc1C(=O)O [Example 51, 4-{3-[(1-{[3,5-difluoro-4-(trifluoromethyl)phenyl]carbamoyl}-D-prolyl)amino]-1H-pyrazol-1-yl}-2-methylbenzoic acid]
20 | 29 nM | Cc1cc(NC(=O)N2CCC[C@@H]2C(=O)Nc2ccn(-c3ccc(C(=O)O)cn3)n2)ccc1C(C)C [Example 28, 6-{3-[(1-{[3-methyl-4-(propan-2-yl)phenyl]carbamoyl}-D-prolyl)amino]-1H-pyrazol-1-yl}pyridine-3-carboxylic acid]
21 | 25 nM | CC(C)c1ccc(NC(=O)N2CCC[C@@H]2C(=O)Nc2ccn(-c3ccc(CC(=O)O)cc3)n2)cc1 [Example 2, (4-{3-[(1-{[4-(Propan-2-yl)phenyl]carbamoyl}-D-prolyl)amino]-1H-pyrazol-1-yl}phenyl)acetic Acid]
22 | 7.6 nM | Cc1c(C(=O)O)ccc(-n2ccc(NC(=O)[C@H]3CCCN3C(=O)Nc3ccc(OC(F)(F)F)cc3)n2)c1F [Example 62, 3-fluoro-2-methyl-4-{3-[(1-{[4-(trifluoromethoxy)phenyl]carbamoyl}-D-prolyl)amino]-1H-pyrazol-1-yl}benzoic acid]
23 | 7.2 nM | CC(C)c1ccc(NC(=O)N2CCC[C@@H]2C(=O)Nc2ccn(-c3cc(F)c(O)c(F)c3)n2)cc1F [Example 14, (2R)—N^2-[1-(3,5-Difluoro-4-hydroxyphenyl)-1H-pyrazol-3-yl]-N^1-[3-fluoro-4-(propan-2-yl)phenyl]pyrrolidine-1,2-dicarboxamide]
